The source made the active and inactive calls. Bounds are passed on as bounds.

In general, EC50 refers to the concentration at which the effect is half-maximal. Broadly, the IC50 is the concentration at which inhibition is half-maximal. One may read the CC50 as the concentration that lowers cell viability or growth by half. The term AC50 denotes the concentration at which the activity in the assay is half-maximal.

One experiment has as its system H4. As to the kind of experiment: Luminescence Cell-Based Dose Response HTS to Identify Activators of 5'UTR Stem-Loop Driven Prion Protein mRNA Translation in H4 Neuroglioblastoma Cells. [Related pubchem assays: 1829 (Project Summary), 1814 (Primary HTS)]. Type of experiment: functional. The conditions noted are these: Homo sapiens.
The next experiment has as its target Large T antigen (Simian virus 40, UniProt P03070). Type of experiment: functional, Betapolyomavirus macacae.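 Further: Confirmatory-stage PubChem screen for compounds that inhibit SV40 T antigen.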
Experiment [1] addresses T1, Sphingosine 1-phosphate receptor 4 (Homo sapiens, UniProt O95977).
T1 sequence (O95977 whole entry): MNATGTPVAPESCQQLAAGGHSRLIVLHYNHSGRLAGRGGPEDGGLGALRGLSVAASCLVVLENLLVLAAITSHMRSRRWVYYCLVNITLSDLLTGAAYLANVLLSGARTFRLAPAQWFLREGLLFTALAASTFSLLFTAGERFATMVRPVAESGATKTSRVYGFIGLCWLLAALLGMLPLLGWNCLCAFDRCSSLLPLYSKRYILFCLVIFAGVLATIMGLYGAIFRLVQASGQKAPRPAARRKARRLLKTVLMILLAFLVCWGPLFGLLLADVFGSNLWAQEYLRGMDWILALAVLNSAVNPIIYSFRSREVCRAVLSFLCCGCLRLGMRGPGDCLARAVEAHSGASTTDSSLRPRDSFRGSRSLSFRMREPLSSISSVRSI
Briefly: Late stage fluorescence dose response cell-based screening assay for antagonists of the Sphingosine 1-Phosphate Receptor 4 (S1P4). [Related pubchem assays: 1524 (Confirmation screen (S1P4 antagonists).), 1510 (Primary screen (S1P4 antagonists).), 1853 (Summary AID (S1P4 antagonists).), 1692 (Dose response screen (S1P4 antagonists).)]. It counts as functional.

In experiment [2] the target is Bifunctional protein GlmU (Mycobacterium tuberculosis, UniProt P9WMN3). Briefly: Inhibitors of Mycobacterial Glucosamine-1-phosphate acetyl transferase (GlmU). Secondary screen. Further details: species or system Mycobacterium tuberculosis H37Rv.
A short description of experiment [3]: HepG2 cell cytotoxicity, dose response, cytotoxicity control for non-replicating M. tuberculosis project (AID 489018). It counts as functional. Particulars: Mycobacterium tuberculosis.
Experiment [4] in a line: Vero E6 cell cytotoxicity, dose response, cytotoxicity control for non-replicating M. tuberculosis project, secondary assay (AID 492998). It counts as functional, VeroE6. Particulars: Vero C1008.
Another experiment is described as follows: cells. Type of experiment: functional.
The subject of the next experiment is CHO. As to the kind of experiment: cytotoxicity in TLR9-MyD88 CHO cells, dose response, cytotoxicity control for TLR9-MyD88 binding inhibitor project, cell-based, luminescence (AID 588339).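 Further: CHO cells stably coexpressing TLR9 and MyD88 fusions from primary screen; compound exposure lasted 48 hours before viability readout.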 The conditions noted are these: Cricetulus griseus. Type of experiment: functional, hamster.
Experiment [5] concerns the target Heat shock protein HSP 90-alpha (Homo sapiens, UniProt P07900). It counts as functional, organism-based.
The next experiment concerns the target Beta Lactamase (Pseudomonas aeruginosa, UniProt Q932Y6). Briefly: beta-lactamase reporter inhibitor potency, dose response, artefact control for TLR9-MyD88 binding inhibitor project, BLA reporter cells, FRET fluorescence (AID 588341).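 Further: cell based assay in CHO-K1 cells stably expressing beta-lactamase.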 It counts as cell-based.
In experiment [6] the target is T2, Heat shock factor protein 1 (Mus musculus, UniProt P38532).
T2 sequence (P38532 whole entry): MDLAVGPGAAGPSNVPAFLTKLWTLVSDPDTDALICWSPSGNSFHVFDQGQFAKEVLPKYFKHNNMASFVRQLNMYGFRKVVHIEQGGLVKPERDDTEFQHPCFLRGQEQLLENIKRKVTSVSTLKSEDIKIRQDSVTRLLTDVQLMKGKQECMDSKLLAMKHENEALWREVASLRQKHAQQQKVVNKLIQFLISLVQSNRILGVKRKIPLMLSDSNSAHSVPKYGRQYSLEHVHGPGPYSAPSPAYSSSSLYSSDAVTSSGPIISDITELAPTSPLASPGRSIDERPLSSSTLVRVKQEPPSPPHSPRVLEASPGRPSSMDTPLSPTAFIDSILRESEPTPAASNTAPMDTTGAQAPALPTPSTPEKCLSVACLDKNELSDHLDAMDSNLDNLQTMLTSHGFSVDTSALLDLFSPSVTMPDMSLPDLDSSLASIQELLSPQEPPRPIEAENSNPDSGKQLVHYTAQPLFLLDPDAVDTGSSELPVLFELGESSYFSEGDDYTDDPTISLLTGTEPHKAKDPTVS
Briefly: inhibition of MG132-induced HSE-luciferase signal, confirmation, cell-based, NIH3T3, luminescence, dose retest (AID 2382).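 Further: NIH3T3 fibroblasts with HSF1-driven luciferase reporter stressed by proteasome inhibitor MG132; luminescence from HSF1-driven luciferase expression after 8 hours of MG132 stress.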 It counts as functional.

Experiment [7] deals with T3, Apoptotic protease-activating factor 1 (Homo sapiens, UniProt O14727).
T3 sequence (O14727 whole entry): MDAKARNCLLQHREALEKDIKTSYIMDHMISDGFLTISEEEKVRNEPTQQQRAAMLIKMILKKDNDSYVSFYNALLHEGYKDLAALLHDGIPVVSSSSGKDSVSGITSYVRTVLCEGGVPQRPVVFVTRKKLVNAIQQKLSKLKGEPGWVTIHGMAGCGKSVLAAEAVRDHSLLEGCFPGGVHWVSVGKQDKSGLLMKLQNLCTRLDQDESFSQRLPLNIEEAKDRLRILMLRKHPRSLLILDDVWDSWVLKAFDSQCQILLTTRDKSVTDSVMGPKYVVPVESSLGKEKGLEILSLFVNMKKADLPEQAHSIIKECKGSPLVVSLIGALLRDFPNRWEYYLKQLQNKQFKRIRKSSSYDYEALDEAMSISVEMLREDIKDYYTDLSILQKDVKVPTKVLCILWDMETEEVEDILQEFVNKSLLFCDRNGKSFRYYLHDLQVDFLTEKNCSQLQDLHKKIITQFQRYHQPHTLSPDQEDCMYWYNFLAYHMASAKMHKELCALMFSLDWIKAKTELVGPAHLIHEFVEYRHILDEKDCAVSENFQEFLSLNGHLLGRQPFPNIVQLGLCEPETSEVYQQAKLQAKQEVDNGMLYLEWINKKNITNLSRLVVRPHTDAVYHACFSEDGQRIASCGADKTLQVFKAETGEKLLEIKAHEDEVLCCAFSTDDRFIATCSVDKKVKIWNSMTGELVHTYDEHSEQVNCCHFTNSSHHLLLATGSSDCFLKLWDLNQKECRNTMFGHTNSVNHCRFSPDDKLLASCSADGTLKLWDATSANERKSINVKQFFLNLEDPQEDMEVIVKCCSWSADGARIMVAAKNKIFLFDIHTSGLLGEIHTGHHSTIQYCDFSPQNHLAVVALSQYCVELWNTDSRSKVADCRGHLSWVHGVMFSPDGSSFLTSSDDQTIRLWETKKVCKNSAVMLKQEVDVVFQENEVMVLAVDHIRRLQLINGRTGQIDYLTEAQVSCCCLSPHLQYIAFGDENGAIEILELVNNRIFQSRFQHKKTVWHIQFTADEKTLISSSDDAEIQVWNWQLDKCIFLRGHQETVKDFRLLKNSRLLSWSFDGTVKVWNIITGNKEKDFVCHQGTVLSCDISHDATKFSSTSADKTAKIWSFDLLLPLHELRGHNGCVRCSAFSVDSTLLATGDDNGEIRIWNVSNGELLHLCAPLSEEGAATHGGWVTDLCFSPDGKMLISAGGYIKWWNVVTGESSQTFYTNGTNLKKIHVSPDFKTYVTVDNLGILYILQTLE
Type of experiment: functional.

The target of another experiment is SUMO-activating enzyme (Homo sapiens, UniProt Q9UBT2). Briefly: SUMOylation inhibitor hit validation, confirmation, SUMOylation inhibitor project, biochemical, AlphaScreen (AID 2018). It counts as functional. (In general: In Alpha technology, singlet oxygen from a donor bead excites a nearby acceptor bead.)
Sequence of SUMO-activating enzyme (Q9UBE0 whole entry): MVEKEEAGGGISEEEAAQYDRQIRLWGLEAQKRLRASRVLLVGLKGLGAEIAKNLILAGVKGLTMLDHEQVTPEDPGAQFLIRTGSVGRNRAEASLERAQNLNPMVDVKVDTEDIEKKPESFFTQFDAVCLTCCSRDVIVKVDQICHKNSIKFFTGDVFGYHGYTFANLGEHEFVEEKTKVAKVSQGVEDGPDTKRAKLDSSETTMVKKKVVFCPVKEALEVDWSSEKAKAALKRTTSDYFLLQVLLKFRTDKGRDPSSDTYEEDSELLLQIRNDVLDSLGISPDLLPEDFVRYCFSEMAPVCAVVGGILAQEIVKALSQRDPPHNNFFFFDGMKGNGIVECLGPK
Sequence of SUMO-activating enzyme (Q9UBT2 whole entry): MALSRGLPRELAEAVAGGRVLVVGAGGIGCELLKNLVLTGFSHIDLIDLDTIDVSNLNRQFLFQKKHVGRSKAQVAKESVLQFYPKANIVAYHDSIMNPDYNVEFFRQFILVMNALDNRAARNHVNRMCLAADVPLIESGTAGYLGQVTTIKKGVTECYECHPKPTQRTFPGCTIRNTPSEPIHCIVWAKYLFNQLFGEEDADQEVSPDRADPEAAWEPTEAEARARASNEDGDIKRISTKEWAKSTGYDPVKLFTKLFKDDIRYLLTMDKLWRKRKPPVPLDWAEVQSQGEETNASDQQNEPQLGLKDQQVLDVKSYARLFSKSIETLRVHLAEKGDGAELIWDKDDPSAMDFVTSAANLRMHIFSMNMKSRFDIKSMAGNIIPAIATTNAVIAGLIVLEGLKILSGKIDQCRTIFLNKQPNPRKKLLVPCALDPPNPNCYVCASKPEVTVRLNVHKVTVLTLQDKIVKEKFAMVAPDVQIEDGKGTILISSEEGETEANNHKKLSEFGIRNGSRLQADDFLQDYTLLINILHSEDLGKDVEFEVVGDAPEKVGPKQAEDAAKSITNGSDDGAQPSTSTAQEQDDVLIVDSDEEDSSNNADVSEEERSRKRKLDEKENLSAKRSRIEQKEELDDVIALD

Sequence of Bifunctional protein GlmU (P9WMN3 whole entry): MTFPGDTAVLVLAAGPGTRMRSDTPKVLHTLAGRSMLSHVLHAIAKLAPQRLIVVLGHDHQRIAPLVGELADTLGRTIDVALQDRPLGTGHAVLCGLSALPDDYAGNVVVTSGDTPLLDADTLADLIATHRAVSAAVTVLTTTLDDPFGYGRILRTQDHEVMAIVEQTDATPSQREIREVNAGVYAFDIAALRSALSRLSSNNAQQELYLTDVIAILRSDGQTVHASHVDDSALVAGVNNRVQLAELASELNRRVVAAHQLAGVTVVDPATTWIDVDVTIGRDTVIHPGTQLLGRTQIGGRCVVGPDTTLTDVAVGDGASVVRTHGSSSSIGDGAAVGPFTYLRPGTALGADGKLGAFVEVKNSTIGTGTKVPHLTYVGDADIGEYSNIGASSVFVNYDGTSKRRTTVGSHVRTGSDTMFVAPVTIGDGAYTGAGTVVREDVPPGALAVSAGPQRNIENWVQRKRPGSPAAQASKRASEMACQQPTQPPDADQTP
Sequence of Beta Lactamase (Q932Y6 whole entry): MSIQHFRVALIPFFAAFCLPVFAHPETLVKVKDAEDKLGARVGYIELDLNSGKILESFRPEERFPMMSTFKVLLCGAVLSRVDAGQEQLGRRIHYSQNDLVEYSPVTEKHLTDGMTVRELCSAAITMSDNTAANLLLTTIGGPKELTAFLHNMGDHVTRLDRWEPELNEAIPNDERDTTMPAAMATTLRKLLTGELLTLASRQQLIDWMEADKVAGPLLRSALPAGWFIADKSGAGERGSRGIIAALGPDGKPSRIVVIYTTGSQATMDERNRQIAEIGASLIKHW
Sequence of Large T antigen (P03070 whole entry): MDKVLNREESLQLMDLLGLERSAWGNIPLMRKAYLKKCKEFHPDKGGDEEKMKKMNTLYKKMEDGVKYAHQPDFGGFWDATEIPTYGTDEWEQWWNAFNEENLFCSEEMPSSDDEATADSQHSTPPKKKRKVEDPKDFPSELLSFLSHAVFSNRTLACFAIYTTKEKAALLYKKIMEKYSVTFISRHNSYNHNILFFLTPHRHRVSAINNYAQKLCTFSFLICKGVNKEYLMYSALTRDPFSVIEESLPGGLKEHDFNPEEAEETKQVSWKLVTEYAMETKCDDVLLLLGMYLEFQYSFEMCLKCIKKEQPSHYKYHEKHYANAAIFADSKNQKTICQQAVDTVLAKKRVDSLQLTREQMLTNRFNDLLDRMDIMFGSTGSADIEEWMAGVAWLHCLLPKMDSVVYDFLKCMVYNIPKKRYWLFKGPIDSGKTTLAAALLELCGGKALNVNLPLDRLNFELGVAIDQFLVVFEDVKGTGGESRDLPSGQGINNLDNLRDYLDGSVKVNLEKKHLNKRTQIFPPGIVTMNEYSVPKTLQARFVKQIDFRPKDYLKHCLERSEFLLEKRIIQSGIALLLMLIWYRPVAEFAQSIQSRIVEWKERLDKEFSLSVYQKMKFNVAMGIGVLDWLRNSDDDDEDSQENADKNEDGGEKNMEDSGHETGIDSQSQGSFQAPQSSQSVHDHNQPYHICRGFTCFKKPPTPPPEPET

In the case of `O=C(Nc1ccccc1)c1nnsc1[S+]([O-])c1ccc(Cl)cc1` (centres undefined), the EC50 with H4 was 24 µM (active). The IC50 on Large T antigen was 25 µM (active); in [1], 12 µM (not active); in [2], 197 µM (active); in “cells”, 13.1 µM (active); with CHO it was 3.46 µM (active); on Beta Lactamase it was 11.9 µM (inactive). Moreover, the CC50 is 19.1 µM (active) in experiment [3] and 13.1 µM (active) in experiment [4]. In experiment [5], the AC50 is < 0.195 µM (active).
With `CC1OC(Nc2cccc3ccccc23)C(O)C(O)C1O` (centres undefined), in experiment [6], the EC50 is > 195 µM (not active). In experiment [7], the IC50 was 14.8 µM (active).
Take `O=C1C=C(Nc2ccccc2)c2ccccc2C1=O`: the figures for the IC50 (on SUMO-activating enzyme; in [7]) were 1.47 µM (active) and 2.23 µM (active), respectively.

The record behind these values is ChEMBL document CHEMBL1201862, “PubChem BioAssay data set” (2004).
